Source: the CheMixHub viscosity set
Values joined by “and” are separate entries in the source; they are usually repeats but may differ in a detail not shown here. Identical values can stand only once.

Experiment: xn = mol fraction of the nth substance listed

NCC(=O)O + O
viscosity
Settings	101 kPa	101.33 kPa
293.15 K, x1 = 0.0194	1.181 mPa·s	–
293.15 K, x1 = 0.0294	1.272 mPa·s	–
293.15 K, x1 = 0.036	1.332 mPa·s	–
298.15 K, x1 = 0.0002174	0.8944 mPa·s and 0.8944 mPa·s	–
298.15 K, x1 = 0.0004	0.894 mPa·s	–
298.15 K, x1 = 0.0007	0.8972 mPa·s	–
298.15 K, x1 = 0.0009	0.8942 mPa·s	–
298.15 K, x1 = 0.0009413	0.9111 mPa·s and 0.9111 mPa·s	–
298.15 K, x1 = 0.00135	0.8968 mPa·s	–
298.15 K, x1 = 0.0018	0.8995 mPa·s	–
298.15 K, x1 = 0.002695	0.9053 mPa·s	–
298.15 K, x1 = 0.003657	0.9319 mPa·s and 0.9319 mPa·s	–
298.15 K, x1 = 0.005496	0.932 mPa·s and 0.932 mPa·s	–
298.15 K, x1 = 0.008976	0.9754 mPa·s and 0.9754 mPa·s	–
298.15 K, x1 = 0.0108	0.9757 mPa·s and 0.9757 mPa·s	–
298.15 K, x1 = 0.01215	0.9853 mPa·s and 0.9853 mPa·s	–
298.15 K, x1 = 0.01456	0.986 mPa·s and 0.986 mPa·s	–
303.15 K, x1 = 0.0003	0.803 mPa·s	–
303.15 K, x1 = 0.0004	0.8014 mPa·s	–
303.15 K, x1 = 0.0007	0.8046 mPa·s	–
303.15 K, x1 = 0.0009	0.801 mPa·s	–
303.15 K, x1 = 0.00135	0.8035 mPa·s	–
303.15 K, x1 = 0.0018	0.8126 mPa·s	–
303.15 K, x1 = 0.002	0.816 mPa·s	–
303.15 K, x1 = 0.0022	0.8155 mPa·s	–
303.15 K, x1 = 0.002695	0.8117 mPa·s	–
303.15 K, x1 = 0.0029	0.8217 mPa·s	–
303.15 K, x1 = 0.003592	0.8207 mPa·s	–
303.15 K, x1 = 0.0063	0.8489 mPa·s	–
303.15 K, x1 = 0.0107	0.8659 mPa·s	–
303.15 K, x1 = 0.01246	0.8788 mPa·s	–
303.15 K, x1 = 0.0129	0.8994 mPa·s	–
303.15 K, x1 = 0.0194	0.9492 mPa·s	–
303.15 K, x1 = 0.0294	1.026 mPa·s	–
303.15 K, x1 = 0.036	1.076 mPa·s	–
308.15 K, x1 = 0.00135	0.7251 mPa·s	–
308.15 K, x1 = 0.0018	0.7276 mPa·s and 0.7355 mPa·s	0.7365 mPa·s
308.15 K, x1 = 0.0022	0.7378 mPa·s	–
308.15 K, x1 = 0.0025	0.7407 mPa·s	–
308.15 K, x1 = 0.0029	0.7439 mPa·s	–
308.15 K, x1 = 0.003657	0.7609 mPa·s and 0.7609 mPa·s	–
308.15 K, x1 = 0.005496	0.7659 mPa·s and 0.7659 mPa·s	–
308.15 K, x1 = 0.007374	0.7773 mPa·s and 0.7773 mPa·s	–
308.15 K, x1 = 0.0108	0.8059 mPa·s and 0.8059 mPa·s	–
308.15 K, x1 = 0.01215	0.806 mPa·s and 0.806 mPa·s	–
308.15 K, x1 = 0.01456	0.8089 mPa·s and 0.8089 mPa·s	–
313.15 K, x1 = 0.001	0.664 mPa·s and 0.6667 mPa·s	–
313.15 K, x1 = 0.00135	0.6585 mPa·s	–
313.15 K, x1 = 0.002	0.667 mPa·s	–
313.15 K, x1 = 0.0022	0.6712 mPa·s	–
313.15 K, x1 = 0.0025	0.6739 mPa·s	–
313.15 K, x1 = 0.005375	0.6819 mPa·s	–
313.15 K, x1 = 0.0129	0.727 mPa·s	–
313.15 K, x1 = 0.0194	0.7628 mPa·s	–
313.15 K, x1 = 0.0294	0.8179 mPa·s	–
313.15 K, x1 = 0.036	0.8542 mPa·s	–
318.15 K, x1 = 0.0002174	0.6164 mPa·s and 0.6164 mPa·s	–
318.15 K, x1 = 0.0009	0.6007 mPa·s	–
318.15 K, x1 = 0.0018	0.6052 mPa·s	–
318.15 K, x1 = 0.001865	0.6321 mPa·s	–
318.15 K, x1 = 0.002245	0.6076 mPa·s	–
318.15 K, x1 = 0.002695	0.6099 mPa·s	–
318.15 K, x1 = 0.005496	0.6417 mPa·s	–
318.15 K, x1 = 0.007374	0.6579 mPa·s and 0.6579 mPa·s	–
318.15 K, x1 = 0.008976	0.6725 mPa·s and 0.6725 mPa·s	–
318.15 K, x1 = 0.0108	0.6756 mPa·s and 0.6756 mPa·s	–
318.15 K, x1 = 0.01215	0.6757 mPa·s and 0.6757 mPa·s	–
318.15 K, x1 = 0.01456	0.6821 mPa·s and 0.6821 mPa·s	–
323.15 K, x1 = 0.0003	0.5508 mPa·s	–
323.15 K, x1 = 0.002	0.5589 mPa·s	–
323.15 K, x1 = 0.008932	0.5878 mPa·s	–
323.15 K, x1 = 0.01246	0.6035 mPa·s	–
323.15 K, x1 = 0.0194	0.6412 mPa·s	–
323.15 K, x1 = 0.0294	0.6885 mPa·s	–
323.15 K, x1 = 0.036	0.7197 mPa·s	–
